Values quoted from earlier work as cited in US20180369425A1, “LINKED AND OTHER pH-TRIGGERED COMPOUNDS” (priority 2017, published 2018).

Experiments:
HeLa cells = conditions: two hours, up to 2 μM; cited from earlier work
[1] = solvents listed; cited from earlier work

Row | Compound | cell death with amanitin alone (HeLa cells) | Solubility [1]
1 | amanitin | does not induce cell death | –
2 | C#CCNC(=O)CCCCC[N+]1=C(/C=C/C=C/C=C/C=C2\N(CCCCS(=O)(=O)[O-])c3ccc4ccccc4c3C2(C)C)C(C)(C)c2c1ccc1ccccc21 [ICG-alkyne] | – | DMSO, DMF, Acetonitrile, Methanol
